The test system of data set [1] is SMN2 minigene mRNA (SMN2-A minigene) in HEK293H cells. Kind of data set: SMN2 minigene mRNA splicing RT-qPCR assay in cultured cells. Type of data set: cell-based, human. To be noted: Homo sapiens, HEK293-H; concentration increasing full length SMN2 mRNA 1.5-fold relative to vehicle-treated cells; HEK293H cells with SMN2-A minigene, 24 hours, 7-point concentration data; read-out: EC1.5x for production of full length SMN2 mRNA. In a few lines: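 EC1.5× values derive from a 24 h treatment of SMN2-A minigene HEK293H cells and GAPDH-normalized RT-qPCR of exon 7-included minigene mRNA relative to vehicle-treated cells.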
(Quantitative PCR measures a nucleic acid by following its amplification.)

For data set [2], the system named is Smn protein in SMA patient fibroblast cells (GM03813). Kind of data set: Smn protein assay in cultured cells (SMN HTRF). It counts as cell-based, human. The note with it: SMA patient fibroblast cells, 48 hours; for EC1.5x for Smn protein expression: 7-point concentration curve, SMN HTRF, concentration producing 1.5 times Smn protein vs DMSO vehicle control; for maximum fold (Fold) increase of Smn protein: 7-point concentration data, fold relative to vehicle control. A digest of the protocol:
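Cells were cultured 72 h, seeded at 5,000/well and dosed with seven concentrations (3.16-fold apart) for 48 h. HTRF on lysates, read at 665 and 620 nm, gave blank-corrected ΔF values relative to DMSO. Potency is reported as EC1.5×, efficacy as maximal fold Smn increase.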
On the technique in general: TR-FRET usually uses a lanthanide donor and a delayed reading to cut background.

Each structure is given as a SMILES string. Bounds are passed on as bounds.

On to `COc1ccc(-c2ccc3nc(C4CCNCC4)cc(=O)n3c2)cc1F` [Compound 316, 7-(3-fluoro-4-methoxyphenyl)-2-(piperidin-4-yl)-4H-pyrido[1,2-a]pyrimidin-4-one], for which the melting point is 278 to 281 °C. In data set [1], the EC (1.5-fold increase) lay within 0.1 to 0.3 µM. In data set [2], the “EC1.5x for Smn protein expression” value is “** (an EC1.5× between >1 μM and ≤3 μM is indicated by two stars (**))”; the “maximum fold (Fold) increase of Smn protein” value (from here on “maximum fold (Fold) increase”) is given as “***** (a fold increase >1.65 is indicated by five stars (*****))”.
In turn, `Cn1ncc2cc(-c3cc(=O)n4cc(C5CCNCC5)ccc4n3)ccc21` [Cpd 603, 2-(1-methyl-1H-indazol-5-yl)-7-(piperidin-4-yl)-4H-pyrido[1,2-a]pyrimidin-4-one] came in with a melting point of 268 to 270 °C. Besides, the EC (1.5-fold increase) in data set [1] lay in the range of 0.1 to 0.3 µM. Also, in data set [2], the “EC1.5x for Smn protein expression” value was “*** (an EC1.5× between >0.3 μM and ≤1 μM is indicated by three stars (***))”; the “maximum fold (Fold) increase” value is “***** (a fold increase >1.65 is indicated by five stars (*****))”.
The compound `Cc1csc(-c2cc(=O)n3cc(N4CCNCC4)ccc3n2)n1` [Cpd 163, 2-(4-methyl-1,3-thiazol-2-yl)-7-(piperazin-1-yl)-4H-pyrido[1,2-a]pyrimidin-4-one] registered a melting point of 142 to 147 °C. In addition, the EC (1.5-fold increase) in data set [1] was 1 to 3 µM. Moreover, the “maximum fold (Fold) increase” value in data set [2] is “*** (a fold increase between >1.35 and ≤1.5 is indicated by three stars (***))”.
`COc1ccc(-c2cc(=O)n3cc(N4CCCN(C)CC4)ccc3n2)cc1OC` [Compound 11, 2-(3,4-dimethoxyphenyl)-7-(4-methyl-1,4-diazepan-1-yl)-4H-pyrido[1,2-a]pyrimidin-4-one] displayed a melting point of 166 to 168 °C. Moreover, the EC (1.5-fold increase) in data set [1] is 0.3 to 1 µM. The “maximum fold (Fold) increase” value in data set [2] was “*** (a fold increase between >1.35 and ≤1.5 is indicated by three stars (***))”.
`Cc1cn2cc(-c3cc(=O)n4cc(N5CCN(CCO)[C@@H](C)C5)ccc4n3)cc(Cl)c2n1` [Compound 537, 2-(8-chloro-2-methylimidazo[1,2-a]pyridin-6-yl)-7-[(3S)-4-(2-hydroxyethyl)-3-methylpiperazin-1-yl]-4H-pyrido[1,2-a]pyrimidin-4-one] had a melting point of 228 to 234 °C. In data set [1], the EC (1.5-fold increase) is less than 0.1 µM. Moreover, in data set [2], the “EC1.5x for Smn protein expression” value is “**** (an EC1.5x≤0.3 μM is indicated by four stars (****))”; the “maximum fold (Fold) increase” value was “**** (a fold increase between >1.5 and ≤1.65 is indicated by four stars (****))”.
The compound `Cc1cn2cc(-c3cc(=O)n4cc(N5CCN(C6CC6)[C@@H](C)C5)ccc4n3)cc(F)c2n1` [Compound 542, 7-[(3S)-4-cyclopropyl-3-methylpiperazin-1-yl]-2-(8-fluoro-2-methylimidazo[1,2-a]pyridin-6-yl)-4H-pyrido[1,2-a]pyrimidin-4-one] gave a melting point of 242 to 246 °C. In addition, the EC (1.5-fold increase) in data set [1] is less than 0.1 µM. Further, in data set [2], the “EC1.5x for Smn protein expression” value was “*** (an EC1.5× between >0.3 μM and ≤1 μM is indicated by three stars (***))”; the “maximum fold (Fold) increase” value was “***** (a fold increase >1.65 is indicated by five stars (*****))”.
Compound `COc1ccc(-c2cc(=O)n3cc(N4CCC(CN5CCCC5)CC4)ccc3n2)cc1OC` [Compound 574, 2-(3,4-dimethoxyphenyl)-7-[4-(pyrrolidin-1-ylmethyl)piperidin-1-yl]-4H-pyrido[1,2-a]pyrimidin-4-one] showed a melting point of 194 to 196 °C. For the same compound, the EC (1.5-fold increase) in data set [1] was 0.3 to 1 µM. Further, the “maximum fold (Fold) increase” value in data set [2] was “** (a fold increase between >1.2 and ≤1.35 is indicated by two stars (**))”.
For the compound `CCN(CC)C1CCN(c2ccc3nc(-c4ccc5nc(C)cn5c4)cc(=O)n3c2)CC1` [Compound 445, 7-[4-(diethylamino)piperidin-1-yl]-2-(2-methylimidazo[1,2-a]pyridin-6-yl)-4H-pyrido[1,2-a]pyrimidin-4-one], the melting point lay in the range of 208 to 210 °C. In data set [1], the EC (1.5-fold increase) was less than 0.1 µM. Also, in data set [2], the “EC1.5x for Smn protein expression” value was “*** (an EC1.5× between >0.3 μM and ≤1 μM is indicated by three stars (***))”; the “maximum fold (Fold) increase” value was “*** (a fold increase between >1.35 and ≤1.5 is indicated by three stars (***))”.
`O=c1cc(-c2ccc(O)c(F)c2)nc2ccc(N3CCNCC3)cn12` [Compound 152, 2-(3-fluoro-4-hydroxyphenyl)-7-(piperazin-1-yl)-4H-pyrido[1,2-a]pyrimidin-4-one] came in with a melting point of 259 to 266 °C. In data set [1], the EC (1.5-fold increase) was 0.1 to 0.3 µM. Further, in data set [2], the “EC1.5x for Smn protein expression” value is given as “**** (an EC1.5x≤0.3 μM is indicated by four stars (****))” and the “maximum fold (Fold) increase” value is recorded as “***** (a fold increase >1.65 is indicated by five stars (*****))”.
In turn, `CCc1nc(C)cn2nc(-c3cc(=O)n4cc(N5CCN(C(C)C)[C@H](C)C5)ccc4n3)cc12` [Compound 643, 2-(4-ethyl-6-methylpyrazolo[1,5-a]pyrazin-2-yl)-7-[(3R)-3-methyl-4-(propan-2-yl)piperazin-1-yl]-4H-pyrido[1,2-a]pyrimidin-4-one] had a melting point of 242 to 244 °C. In addition, in data set [1], the EC (1.5-fold increase) was 0.1 to 0.3 µM. Besides, in data set [2], the “EC1.5x for Smn protein expression” value was “*** (an EC1.5× between >0.3 μM and ≤1 μM is indicated by three stars (***))”; the “maximum fold (Fold) increase” value was “***** (a fold increase >1.65 is indicated by five stars (*****))”.
In turn, `CCNC1CCN(c2cc(C)c3nc(-c4cc5c(C)nc(C)cn5n4)cc(=O)n3c2)CC1` [Compound 596, 2-(4,6-dimethylpyrazolo[1,5-a]pyrazin-2-yl)-7-[4-(ethylamino)piperidin-1-yl]-9-methyl-4H-pyrido[1,2-a]pyrimidin-4-one] yielded a melting point of 228 to 236 °C. Further, the EC (1.5-fold increase) in data set [1] was less than 0.1 µM. Further, in data set [2], the “EC1.5x for Smn protein expression” value is given as “**** (an EC1.5x≤0.3 μM is indicated by four stars (****))”; the “maximum fold (Fold) increase” value was “**** (a fold increase between >1.5 and ≤1.65 is indicated by four stars (****))”.
Turning to `Cc1cn2cc(-c3cc(=O)n4nc(C5CCN(CCO)CC5)ccc4n3)cc(Cl)c2n1` [Compound 526, 2-(8-chloro-2-methylimidazo[1,2-a]pyridin-6-yl)-7-[1-(2-hydroxyethyl)piperidin-4-yl]-4H-pyrimido[1,2-b]pyridazin-4-one], the melting point lay in the range of 255 to 257 °C. Also, in data set [1], the EC (1.5-fold increase) lay within 0.3 to 1 µM. In data set [2], the “EC1.5x for Smn protein expression” value was “** (an EC1.5× between >1 μM and ≤3 μM is indicated by two stars (**))”; the “maximum fold (Fold) increase” value is recorded as “***** (a fold increase >1.65 is indicated by five stars (*****))”.
Compound `COc1ccc(-c2cc(=O)n3cc(N4CCC(N(C)C)CC4)cc(C)c3n2)cc1F` [Compound 328, 7-[4-(dimethylamino)piperidin-1-yl]-2-(3-fluoro-4-methoxyphenyl)-9-methyl-4H-pyrido[1,2-a]pyrimidin-4-one] displayed a melting point of 141 to 145 °C. Further, the EC (1.5-fold increase) in data set [1] was less than 0.1 µM. Also, in data set [2], the “maximum fold (Fold) increase” value is “*** (a fold increase between >1.35 and ≤1.5 is indicated by three stars (***))”.
Regarding `COc1ccc(-c2cc(=O)n3cc(N4CCNCC4)ccc3n2)cn1` [Compound 88, 2-(6-methoxypyridin-3-yl)-7-(piperazin-1-yl)-4H-pyrido[1,2-a]pyrimidin-4-one], the melting point is 173 to 178 °C. Moreover, in data set [1], the EC (1.5-fold increase) fell in the range of 1 to 3 µM. The “maximum fold (Fold) increase” value in data set [2] was “** (a fold increase between >1.2 and ≤1.35 is indicated by two stars (**))”.

For orientation: melting point means the temperature of the solid-liquid transition.

These data come from patent US11753407B2, “Compounds for treating spinal muscular atrophy” (PTC Therapeutics, Inc., priority 2012, dated 2023).
